Data reported in patent US20230285431A1, “Human Milk Oligosaccharide for Improving Health of Intestinal Microenvironment and Use Thereof” (Inner Mongolia Yili Industrial Group Co., Ltd., priority 2020, published 2023).
Entries after “also recorded” stand apart in the source; their conditions may differ.

Assays:
Assay type in all cases: cell-based
[1] = test system: infant fecal flora of the simulated distal colon; assay: Small batch fermentation with each HMO in simulated distal colon environment; details: for formic acid produced, distal colon / acetic acid produced, distal colon / butyric acid produced, distal colon / propionic acid produced, distal colon: 48 hours of fermentation; for formic acid produced, distal colon: FIG. 13; for acetic acid produced, distal colon: FIG. 14; for butyric acid produced, distal colon: FIG. 16; for total short chain fatty acids produced, distal colon: FIG. 12; for pH changes of the distal colon over time: starting pH 6.5, FIG. 3B; for production of isobutyric acid, distal colon / production of isovaleric acid, distal colon: small batch fermentation; for production of isobutyric acid, distal colon: FIG. 6A; for production of isovaleric acid, distal colon: FIG. 6B; for propionic acid produced, distal colon: FIG. 15
Description: (§1) Using a SHIME device (see the schematic diagram in FIG. 1A), fresh fecal samples containing bacteria flora were obtained from a healthy infant naturally delivered and exclusively breastfed, and inoculated into containers corresponding to the proximal colon and distal colon. Food material was fed to the stomach/small intestine end of the device three times a day for two weeks to support the growth and colonization of the flora in the proximal colon and distal colon. Here, the food material that was digested by the small intestine and entered the colon was prepared on the basis of the standard food material provided by ProDigest, the manufacturer of the SHIME device, with adjustment to the ratio of lactose, casein and whey protein; the standard food material was composed of: pectin (1 g/L), glucose (1 g/L), starch (1 g/L), cellobiose (1 g/L), proteose peptone (2 g/L), mucin (6 g/L)), lactose (2.1 g/L), casein (0.2 g/L), whey-lactalbumin (2.7 g/L), L-cysteine hydrochloride (0.2 g/L). The ratio of lactose, casein and whey protein in the food materials in each experiment of the present disclosure was adjusted to about 12:1:15, with reference to Le Blay et al. (2010), and stable and balanced nutrients were maintained, so as to simulate the food composition to which the infant's intestinal microecology may be exposed during regular breastfeeding or infant formula feeding. After the infant fecal flora was stabilized in the SHIME model for two weeks, the proximal colon and distal colon were sampled, aliquoted in glycerol to form a stock solution, and stored under anaerobic conditions at −80° C.
After the infant flora was inoculated into the SHIME model and stably grown for 2 weeks (as described in the aforementioned “Fecal inoculation and culture in SHIME device”), 10 mL of the flora in the proximal colon and distal colon was taken and respectively transferred to fermentation flasks under anaerobic conditions for small batch fermentation. On the basis of 43 mL basal buffer (for adjusting pH and simulating the corresponding colonic environment), each fermentation flask also contained 20 mL PBS buffer (for dissolving and introducing the HMO test substance) supplemented with different amounts of HMOs, so that the final concentration of each HMO was 0.02 g/L, 0.2 g/L, or 2 g/L, the pH of the proximal colon was set to 5.6, and the pH of the distal colon was set to 6.5. The flasks were incubated at 37° C. with shaking. During incubation, the pressure was measured at 0, 6 hours, 24 hours and 48 hours, followed by sampling for detection of pH and short chain fatty acids. Measurements were repeated three times.
During the HMO intervention, the gas production in each group was compared by measuring changes in pressure. Short chain fatty acid analysis including isobutyric acid, isovaleric acid, butyric acid, propionic acid, acetic acid, and formic acid, were analyzed by HPLC.
(§2) A two-tailed, paired t-test was performed on the data results. When there is a significant difference between two groups, and p<0.05, it is indicated with an asterisk *. Two asterisks ** indicate p<0.01. Three asterisks *** indicate p<0.001.

[2] = test system: infant fecal flora of the simulated proximal colon; assay: Small batch fermentation with each HMO in simulated proximal colon environment; details: for formic acid produced, proximal colon: FIG. 8; for acetic acid produced, proximal colon: FIG. 9; for total short chain fatty acids produced, proximal colon: FIG. 7; for pressure changes (gas production) in the proximal colon: FIG. 4A
Description: Using a SHIME device (see the schematic diagram in FIG. 1A), fresh fecal samples containing bacteria flora were obtained from a healthy infant naturally delivered and exclusively breastfed, and inoculated into containers corresponding to the proximal colon and distal colon. Food material was fed to the stomach/small intestine end of the device three times a day for two weeks to support the growth and colonization of the flora in the proximal colon and distal colon. Here, the food material that was digested by the small intestine and entered the colon was prepared on the basis of the standard food material provided by ProDigest, the manufacturer of the SHIME device, with adjustment to the ratio of lactose, casein and whey protein; the standard food material was composed of: pectin (1 g/L), glucose (1 g/L), starch (1 g/L), cellobiose (1 g/L), proteose peptone (2 g/L), mucin (6 g/L)), lactose (2.1 g/L), casein (0.2 g/L), whey-lactalbumin (2.7 g/L), L-cysteine hydrochloride (0.2 g/L). The ratio of lactose, casein and whey protein in the food materials in each experiment of the present disclosure was adjusted to about 12:1:15, with reference to Le Blay et al. (2010), and stable and balanced nutrients were maintained, so as to simulate the food composition to which the infant's intestinal microecology may be exposed during regular breastfeeding or infant formula feeding. After the infant fecal flora was stabilized in the SHIME model for two weeks, the proximal colon and distal colon were sampled, aliquoted in glycerol to form a stock solution, and stored under anaerobic conditions at −80° C. After the infant flora was inoculated into the SHIME model and stably grown for 2 weeks (as described in the aforementioned “Fecal inoculation and culture in SHIME device”), 10 mL of the flora in the proximal colon and distal colon was taken and respectively transferred to fermentation flasks under anaerobic conditions for small batch fermentation. On the basis of 43 mL basal buffer (for adjusting pH and simulating the corresponding colonic environment), each fermentation flask also contained 20 mL PBS buffer (for dissolving and introducing the HMO test substance) supplemented with different amounts of HMOs, so that the final concentration of each HMO was 0.02 g/L, 0.2 g/L, or 2 g/L, the pH of the proximal colon was set to 5.6, and the pH of the distal colon was set to 6.5. The flasks were incubated at 37° C. with shaking. During incubation, the pressure was measured at 0, 6 hours, 24 hours and 48 hours, followed by sampling for detection of pH and short chain fatty acids. Measurements were repeated three times. During the HMO intervention, the gas production in each group was compared by measuring changes in pressure. Short chain fatty acid analysis including isobutyric acid, isovaleric acid, butyric acid, propionic acid, acetic acid, and formic acid, were analyzed by HPLC. A two-tailed, paired t-test was performed on the data results. When there is a significant difference between two groups, and p<0.05, it is indicated with an asterisk *. Two asterisks ** indicate p<0.01. Three asterisks *** indicate p<0.001.

[3] = test system: infant fecal flora of the simulated distal colon (SHIME model); assay: SHIME fermentation with each HMO in simulated distal colon environment; details: for decrease ratio of butyric acid, Day 14 versus Day 1, compared to control without HMO: 14 days of fermentation; for Butyric acid, Log2 (day 14/day 1): HMO 2 g/L in feed, 14 days of HMO intervention, biological replicate 1
Description: as §1
The infant fecal flora sampled and stored as in “Fecal inoculation and culture in SHIME device” was inoculated into the SLIME model to investigate the fermentation of HMOs in the SHIME device. Two batches of experiments were done sequentially, and three sample groups (or control) were simultaneously done in each batch of experiments. In three sets of experimental devices, the devices simulating the proximal colon and distal colon were inoculated separately (see the schematic diagram of FIG. 1B). Food material was fed three times a day, and after 4 days of incubation, an HMO was blended into the feed food material (no HMO was added to the control group). 280 mg of HMO (at a concentration of 2 g/L) and 60 mL of pancreatic juice were added into 140 mL of a stock solution for each food material. Only one experiment was performed for each set of HMO and control, so the biological replicate was 1. SHIME fermentation continued until Day 14 after the HMO intervention, and samples were taken for detection at different time periods during the fermentation period.
as §2

[4] = HMO 2 g/L, 48 hours of fermentation

Row | Molecule | formic acid produced, distal colon [1] | acetic acid produced, distal colon [1] | butyric acid produced, distal colon [1] | total short chain fatty acids produced, distal colon ([1]; HMO 2 g/L, 24 hours) | formic acid produced, proximal colon ([2]; 48 hours of fermentation) | acetic acid produced, proximal colon ([2]; 48 hours of fermentation) | propionic acid produced, proximal colon ([2]; 48 hours of fermentation, FIG. 10) | butyric acid produced, proximal colon ([2]; 48 hours of fermentation, FIG. 11) | total short chain fatty acids produced, proximal colon [2, 4] | pressure changes (gas production) in the proximal colon ([2]; HMO 2 g/L) | decrease ratio of butyric acid, Day 14 versus Day 1, compared to control without HMO [3] | Butyric acid, Log2 (day 14/day 1) [3] | pH changes of the distal colon over time ([1]; HMO 2 g/L) | production of isobutyric acid, distal colon [1] | production of isovaleric acid, distal colon [1] | propionic acid produced, distal colon [1] | total short chain fatty acids produced, distal colon ([1]; HMO 0.02 g/L, 6 hours) | total short chain fatty acids produced, proximal colon ([2]; HMO 2 g/L, 24 hours of fermentation) | pH changes over time ([1]; HMO 0.2 g/L, colon section not given) | pressure changes (gas production) in the proximal colon ([2]; HMO 0.2 g/L)
1 | CC(=O)N[C@H]1[C@H]([C@H](O)[C@H](O)CO)O[C@@](OC[C@H]2O[C@@H](O[C@H]3[C@H](O)[C@@H](O)[C@H](O)O[C@@H]3CO)[C@H](O)[C@@H](O)[C@H]2O)(C(=O)O)C[C@@H]1O [6-SL, 6′-sialyl lactose] | more significant | more significant | significantly increased | relatively more short chain fatty acids | significantly increased; also recorded: more significant | significantly increased | significantly increased | significantly increase | significantly more SCFA | higher pressure | good improving effect compared to the control | −0.66 |  |  |  |  |  |  |  | 
2 | 2′-fucosyllactose [2′-FL] |  |  |  |  |  |  |  |  |  |  | good improving effect compared to the control | −0.67 | tend to significantly lower the pH | significantly reduce | most potent; also recorded: significantly reduce |  |  |  |  | 
3 | CC(=O)N[C@H]1[C@H]([C@H](O)[C@H](O)CO)O[C@@](O[C@H]2[C@@H](O)[C@@H](CO)O[C@@H](O[C@H]3[C@H](O)[C@@H](O)C(O)O[C@@H]3CO)[C@@H]2O)(C(=O)O)C[C@@H]1O (stereo partly drawn) [3-SL, 3′-sialyl lactose] | more significant | more significant | significantly increased |  | significantly increased | significantly increased; also recorded: more significant |  |  | significantly more SCFA | higher pressure | the smallest | −0.13 |  | significantly reduce |  | more significant | relatively more short chain fatty acids | produces more SCFA |  | 
4 | 3-fucosyllactose [3-FL] | more significant |  |  | relatively more short chain fatty acids |  |  |  |  |  |  |  | −0.33 | tend to significantly lower the pH | significantly reduce | significantly reduce | more significant |  |  |  | 
5 | CC(=O)N[C@H]1[C@H](O[C@H]2[C@@H](O)[C@@H](CO)O[C@@H](O[C@H]3[C@H](O)[C@@H](O)C(O)O[C@@H]3CO)[C@@H]2O)O[C@H](CO)[C@@H](O)[C@@H]1O[C@@H]1O[C@H](CO)[C@H](O)[C@H](O)[C@H]1O (stereo partly drawn) [LNT, Lacto-N-tetraose] | more significant | more significant |  |  |  |  |  |  |  |  | good improving effect compared to the control | −0.70 |  | significantly reduce |  |  | relatively more short chain fatty acids |  | tends to better lower the pH | tends to produce gas better
